In patent US12162878B2 (HINOVA PHARMACEUTICALS INC., priority 2018, dated 2024):

test system: CWR22RV1 cells; test: Inhibition of proliferation of CWR22RV1 cells (CCK-8); type: cell-based, human; conditions: Homo sapiens, 144 h, 6 days
Procedure: • CWR22RV1 cell line (Cell Bank of Chinese Academy of Sciences, TCHu100) • FBS (Gibco, Cat. No. 10099-141) • 0.01M PBS (Biosharp, Cat. No. 162262) • RIPM1640 (Hyclone, Cat. No. 308090.01) • Penicillin-Streptomycin (Hyclone, Cat. No. SV30010) • Cell counting kit-8 (Signalway Antibody, Cat. No. CP002) • DMSO (Sigma, Cat. No. D5879) • Centrifuge Tube, 15 ml (Excell Bio, Cat. No. CS015-0001) • Cell Culture Dish, (Excell Bio, Cat. No. CS016-0128) • 96-well cell culture cluster (Corning, Cat. No. 3599) • 2. Experimental method (1) Preparation of Buffer
1) CWR22RV1 cells were subcultured in cell culture medium, and the cells in good growth condition were seeded in a 96-well plate, 80 μL for each well, thus the number of cells per well was 1500, then the plate was cultured overnight in a 37° C., 5% CO2 cell incubator.
2) The drug was prepared with dimethyl sulfoxide (DMSO) as a 30 mM stock solution. Prior to use, the solution was diluted 3 times with DMSO, and then diluted with a 3-fold gradient to obtain 9 concentration gradients. Then, each concentration of the compound was further diluted 200 times with the culture solution (to ensure that DMSO concentration in the culture system was 0.1%), 2 repeat wells for each concentration. The diluted solution of each compound (20 μL) was added to the cell culture well (with a final concentration of 10 μM, 3.3 μM, 1.1 μM . . . ), and shaken gently for mixing. In addition, three negative control wells containing only cells and three blank control wells containing only culture medium (20 μL DMSO diluted 200 times with culture medium being added to six wells) were included.
(1) After culturing for 6 days, 10 μL CCK-8 was added to each well and cultured for additional 2.5 h in a 37° C., 5% CO2 cell incubator.
(2) The absorbance (OD value) at 450 nm was measured with a multifunctional microplate reader.
(3) The data was analyzed by the Dose-response-inhibition equation in the software GraphPad Prism6, and the IC50 value was obtained.

| SMILES | IC50 [nM] |
| --- | --- |
| Cn1cc(-c2cc(S(C)(=O)=O)ccc2N2CCC3(CC2)CC3C#N)c2cc[nH]c2c1=O (stereo not drawn) [Compound 181, 6-(2-(6-methyl-7-oxo-6,7-dihydro-1H-pyrrolo[2,3-c]pyridin-4-yl)-4-(methylsulfonyl)phenyl)-6-aza-spiro[2.5]octan-1-cyanide] | 90 |

same assay, conditions: Homo sapiens, CWR22Rv1, 144 h, 6 days

| SMILES | IC50 [nM] |
| --- | --- |
| [2H]C([2H])([2H])n1cc(-c2cc(NS(=O)(=O)C3CC3)ccc2N2CC3(COC3)C2)c2cc[nH]c2c1=O [Compound 51, N-(3-(6-trideuteromethyl-7-oxo-6,7-dihydro-1H-pyrrolo[2,3-c]pyridin-4-yl)-4-(2-oxa-6-aza-spiro[3.3]heptan-6-yl)phenyl) cyclopropanesulfonamide] | 490 |
| [2H]C([2H])([2H])n1cc(-c2cc(NS(=O)(=O)CC)ccc2N2CCC3(CC2)CC3C(=O)OCC)c2cc[nH]c2c1=O (stereo not drawn) [Compound 52] | 520 |
| [2H]C([2H])([2H])n1cc(-c2cc(NS(=O)(=O)CC)ccc2N2CCC3(CC2)CC3C(=O)O)c2cc[nH]c2c1=O (stereo not drawn) [Compound 53, 6-(4-(ethylsulfonamide)-2-(6-trideuteromethyl-7-oxo-6,7-dihydro-1H-pyrrolo[2,3-c]pyridin-4-yl)phenyl)-6-aza-spiro[2.5]octan-1-carboxylic acid] | 550 |
| [2H]C([2H])([2H])n1cc(-c2cc(S(C)(=O)=O)ccc2N2CCC3(CC3)C2)c2cc[nH]c2c1=O [Compound 54, 6-trideuteromethyl-4-(5(methylsulfonyl)-2-(5-aza-spiro[2.4]heptan-5-yl)phenyl)-1H-pyrrolo[2,3-c]pyridin-7(6H)-one] | 18 |
| [2H]C([2H])([2H])n1cc(-c2cc(S(C)(=O)=O)ccc2N2CCCC3(CC3)C2)c2cc[nH]c2c1=O [Compound 57, 6-trideuteromethyl-4-(5(methylsulfonyl)-2-(5-aza-spiro[2.5]octan-5-yl)phenyl)-1H-pyrrolo[2,3-c]pyridin-7(6H)-one] | 25 |
| [2H]C([2H])([2H])n1cc(-c2cc(S(=O)(=O)C3CC3)ccc2N2CCCC3(CC3)C2)c2cc[nH]c2c1=O [Compound 58, 4-(5-(cyclopropylsulfonyl)-2-(5-aza-spiro[2.5]octan-5-yl)phenyl)-6-trideuteromethyl-1H-pyrrolo[2,3-c]pyridin-7(6H)-one] | 50 |
| [2H]C([2H])([2H])n1cc(-c2cc(S(=O)(=O)C3CC3)ccc2N2CC3(CCC3)C2)c2cc[nH]c2c1=O [Compound 59, 4-(5-(cyclopropylsulfonyl)-2-(2-aza-spiro[3.3]heptan-2-yl)phenyl)-6-trideuteromethyl-1H-pyrrolo[2,3-c]pyridin-7(6H)-one] | 65 |
| [2H]C([2H])([2H])n1cc(-c2cc(S(C)(=O)=O)ccc2N2CC3(CCC3)C2)c2cc[nH]c2c1=O [Compound 60, 6-trideuteromethyl-4-(5-(methylsulfonyl)-2-(2-aza-spiro[3.3]heptan-2-yl)phenyl)-1H-pyrrolo[2,3-c]pyridin-7(6H)-one] | 39 |
| [2H]C([2H])([2H])n1cc(-c2cc(S(=O)(=O)C3COC3)ccc2N2CC3(CCC3)C2)c2cc[nH]c2c1=O [Compound 61, 6-trideuteromethyl-4-(5-(oxetane-3-ylsulfonyl)-2-(2-aza-spiro [3.3]heptan-2-yl)phenyl)-1H-pyrrolo[2,3-c]pyridin-7(6H)-one] | 105 |
| [2H]C([2H])([2H])n1cc(-c2cc(S(=O)(=O)CCCC)ccc2N2CC3(CCC3)C2)c2cc[nH]c2c1=O [Compound 62] | 130 |
| [2H]C([2H])([2H])n1cc(-c2cc(S(=O)(=O)CC)ccc2N2CC3(CCC3)C2)c2cc[nH]c2c1=O [Compound 63, 4-(5-(ethylsulfonyl)-2-(2-aza-spiro[3.3]heptan-2-yl)phenyl)-6-trideuteromethyl-1H-pyrrolo[2,3-c]pyridin-7(6H)-one] | 60 |
| [2H]C([2H])([2H])n1cc(-c2cc(S(C)(=O)=O)ccc2N2CC3(COC3)C2)c2cc[nH]c2c1=O [Compound 64, 6-trideuteromethyl-4-(5-(methylsulfonyl)-2-(2-oxa-6-aza-spiro[3.3]heptan-6-yl)phenyl)-1H-pyrrolo[2,3-c]pyridin-7(6H)-one] | 380 |
| [2H]C([2H])([2H])n1cc(-c2cc(S(=O)(=O)CC)ccc2N2CC3(COC3)C2)c2cc[nH]c2c1=O [Compound 65, 4-(5-(ethylsulfonyl)-2-(2-oxa-6-aza-spiro[3.3]heptan-6-yl)phenyl)-6-trideuteromethyl-1H-pyrrolo[2,3-c]pyridin-7(6H)-one] | 410 |
| [2H]C([2H])([2H])n1cc(-c2cc(S(=O)(=O)CCCC)ccc2N2CC3(COC3)C2)c2cc[nH]c2c1=O [Compound 66, 4-(5-(butylsulfonyl)-2-(2-oxa-6-aza-spiro[3.3]heptan-6-yl)phenyl)-6-trideuteromethyl-1H-pyrrolo[2,3-c]pyridin-7(6H)-one] | 520 |
| [2H]C([2H])([2H])n1cc(-c2cc(S(=O)(=O)C3CC3)ccc2N2CC3(COC3)C2)c2cc[nH]c2c1=O [Compound 67, 4-(5-(cyclopropylsulfonyl)-2-(2-oxa-6-aza-spiro[3.3]heptan-6-yl)phenyl)-6-trideuteromethyl-1H-pyrrolo[2,3-c]pyridin-7(6H)-one] | 490 |
| [2H]C([2H])([2H])n1cc(-c2cc(S(C)(=O)=O)ccc2N2CCC3(CC2)CC3C(=O)OCC)c2cc[nH]c2c1=O (stereo not drawn) [Compound 68, ethyl 6-(2-(6-trideuteromethyl-7-oxo-6,7-dihydro-1H-pyrrolo [2,3-c]pyridin-4-yl)-4-(methylsulfonyl)phenyl)-6-aza-spiro[2.5]octan-1-carboxylate] | 530 |
| [2H]C([2H])([2H])n1cc(-c2cc(S(C)(=O)=O)ccc2N2CCC3(CC2)CC3C(=O)O)c2cc[nH]c2c1=O (stereo not drawn) [Compound 69, 6-(2-(6-trideuteromethyl-7-oxo-6,7-dihydro-1H-pyrrolo[2,3-c]pyridin-4-yl)-4-(methylsulfonyl)phenyl)-6-aza-spiro[2.5]octan-1-carboxylic acid] | 570 |
| CCCCS(=O)(=O)Nc1ccc(N2CCC3(CC2)CC3)c(-c2cn(C)c(=O)c3[nH]ccc23)c1 [Compound 70, N-(3-(6-methyl-7-oxo-6,7-dihydro-1H-pyrrolo[2,3-c]pyridin-4-yl)-4-(6-aza-spiro[2.5]octan-6-yl)phenyl)butyl-1-sulfonamide] | 130 |
| Cn1cc(-c2cc(NS(C)(=O)=O)ccc2N2CCCC3(CC3)C2)c2cc[nH]c2c1=O [Compound 71, N-(3-(6-methyl-7-oxo-6,7-dihydro-1H-pyrrolo[2,3-c]pyridin-4-yl)-4-(5-aza-spiro[2.5]octan-5-yl)phenyl)methylsulfonamide] | 94 |
| Cn1cc(-c2cc(S(C)(=O)=O)ccc2N2CCC3(CC2)COC3)c2cc[nH]c2c1=O [Compound 177, 6-methyl-4-(5-(methylsulfonyl)-2-(2-oxa-7-aza-spiro[3.5]nonan-7-yl)phenyl)-1H-pyrrolo[2,3-c]pyridin-7(6H)-one] | 17 |
| Cn1cc(-c2cc(S(C)(=O)=O)ccc2N2CCC3(CC2)CC3CO)c2cc[nH]c2c1=O (stereo not drawn) [Compound 179, 4-(2-(1-(hydroxymethyl)-6-aza-spiro[2.5]octan-6-yl)-5-(methylsulfonyl)phenyl)-6-methyl-1H-pyrrolo[2,3-c]pyridin-7(6H)-one] | 51 |
| Cn1cc(-c2cc(S(C)(=O)=O)ccc2N2CCC3(CC2)CC3C(N)=O)c2cc[nH]c2c1=O (stereo not drawn) [Compound 180, 6-(2-(6-methyl-7-oxo-6,7-dihydro-1H-pyrrolo[2,3-c]pyridin-4-yl)-4-(methylsulfonyl)phenyl)-6-aza-spiro[2.5]octan-1-formamide] | 460 |
| Cc1c[nH]c2c(=O)n(C)cc(-c3cc(S(C)(=O)=O)ccc3N3CCC4(CC3)CC4)c12 [Compound 182, 3,6-dimethyl-4-(5-(methylsulfonyl)-2-(6-aza-spiro[2.5]octan-6-yl)phenyl)-1H-pyrrolo[2,3-c]pyridin-7(6H)-one] | 40 |
| [2H]C([2H])([2H])n1cc(-c2cc(S(C)(=O)=O)ccc2N2CCC3(CC2)COC3)c2cc[nH]c2c1=O [Compound 183, 6-trideuteromethyl-4-(5-(methylsulfonyl)-2-(2-oxa-7-aza-spiro [3.5]nonan-7-yl)phenyl)-1H-pyrrolo[2,3-c]pyridin-7(6H)-one] | 63 |
| [2H]C([2H])([2H])n1cc(-c2cc(S(C)(=O)=O)ccc2N2CCC3(CC2)CC3C(N)=O)c2cc[nH]c2c1=O (stereo not drawn) [Compound 185, 6-(2-(6-trideuteromethyl-7-oxo-6,7-dihydro-1H-pyrrolo[2,3-c]pyridin-4-yl)-4-(methylsulfonyl)phenyl)-6-aza-spiro[2.5]octan-1-formamide] | 1040 |
| [2H]C([2H])([2H])n1cc(-c2cc(S(=O)(=O)CC)cnc2N2CCC3(CC2)CC3)c2cc[nH]c2c1=O [Compound 186, 4-(5(ethylsulfonyl)-2-(6-aza-spiro[2.5]octan-6-yl)pyridin-3-yl)-6-trideuteromethyl-1H-pyrrolo[2,3-c]pyridin-7(6H)-one] | 21 |
